{
  "source": "ChEMBL document CHEMBL1141058",
  "about": "“Squaric monoamide monoester as a new class of reactive immunization hapten for catalytic antibodies” (Bioorg Med Chem Lett, 2005)",
  "key": {"[1]": {"system": "Monoclonal antibody (mAb) 2D4", "assay": "Ratio of reaction constant of paraoxon hydrolysis catalysed by monoclonal antibody 2D4 to that Michaelis-Menten's constant"}, "[2]": {"system": "Monoclonal antibody (mAb) 2D4", "assay": "Michaelis-Menten's constant of monoclonal antibody, 2D4 for paraoxon hydrolysis determined in 50 mM bicine with 50 mM NaCl, pH 8.0, 5% DMSO cosolvent at 23 degree C"}, "[3]": {"system": "Monoclonal antibody (mAb) 3C8", "assay": "Ratio of reaction constant of paraoxon hydrolysis catalysed by monoclonal antibody 3C8 to that Michaelis-Menten's constant"}, "[4]": {"system": "Monoclonal antibody (mAb) 2D4", "assay": "Ratio of reaction constant of paraoxon hydrolysis catalysed by monoclonal antibody 2D4 to that of uncatalysed"}, "[5]": {"system": "Monoclonal antibody (mAb) 2D4", "assay": "Reaction constant of paraoxon hydrolysis catalyse by monoclonal antibody, 2D4 determined in 50 mM bicine with 50 mM NaCl, pH 8.0, 5% DMSO cosolvent at 23 degree C"}, "[6]": {"system": "Monoclonal antibody (mAb) 3C8", "assay": "Reaction constant of paraoxon hydrolysis catalyse by monoclonal antibody, 3C8 determined in 50 mM bicine with 50 mM NaCl, pH 8.0, 5% DMSO cosolvent at 23 degree C"}, "[7]": {"system": "Monoclonal antibody (mAb) 3C8", "assay": "Ratio of reaction constant of paraoxon hydrolysis catalysed by monoclonal antibody 3C8 to that of uncatalysed"}, "[8]": {"system": "Monoclonal antibody (mAb) 3C8", "assay": "Michaelis-Menten constant of monoclonal antibody, 3C8 for paraoxon hydrolysis determined in 50 mM bicine with 50 mM NaCl, pH 8.0, 5% DMSO cosolvent at 23 degree C"}},
  "data": [
    {"smiles": "CCOc1c(Nc2ccc(NC(=O)CCCC(=O)O)cc2)c(=O)c1=O", "values": [
      {"measurement": "k cat/Km", "setting": "[1]", "result": 0.0322, "unit": "M⁻¹ s⁻¹"},
      {"measurement": "Km", "setting": "[2]", "result": 1180, "unit": "µM"},
      {"measurement": "k cat/Km", "setting": "[3]", "result": 0.0262, "unit": "M⁻¹ s⁻¹"},
      {"measurement": "k cat/Kuncat", "setting": "[4]", "result": 2310},
      {"measurement": "k cat", "setting": "[5]", "result": "3.8e-05", "unit": "s⁻¹"},
      {"measurement": "k cat", "setting": "[6]", "result": "3.38e-05", "unit": "s⁻¹"},
      {"measurement": "k cat/Kuncat", "setting": "[7]", "result": 2060},
      {"measurement": "Km", "setting": "[8]", "result": 1290, "unit": "µM"}
    ]}
  ]
}
